Source: patent publication EP3046573B1, “AMYLIN ANALOGUES” (Zealand Pharma A/S, priority 2013, dated 2015)
Like-named read-outs stand apart in the source and are kept apart here. Numbered stars: 1 amine (or outer) side, 2 acyl side, 3 side chain; on linkers, the order of the positions; unused ones are H or OH. Bridge positions count the residues as written; N and C are the ends. Square brackets hold non-standard residues; d marks the D form. Peptide text beside a SMILES is read from it. * marks the point of attachment. C20 diacid = O=C(O)CCCCCCCCCCCCCCCCCCC(=O)*; γGlu = O=C(O)[C@H](CCC(=O)[*:2])N[*:1]; NMeI = CC[C@H](C)[C@H](NC)C(=O)O; Sar = CNCC(=O)O

Key:
[1] = molecular target: T1, human calcitonin receptor (hCTR2) (Homo sapiens, UniProt P30988); experiment: hCTR2 assay: induction of cAMP (AlphaScreen cAMP Assay kit) in COS7 cells expressing hCTR2; format: cell-based; conditions: cAMP induction in COS7 cells expressing hCTR2; average of a minimum of 3 determinations; read-out: hCTR2 EC50
T1 construct: expressed in transfected cells
T1 sequence (P30988 25-474): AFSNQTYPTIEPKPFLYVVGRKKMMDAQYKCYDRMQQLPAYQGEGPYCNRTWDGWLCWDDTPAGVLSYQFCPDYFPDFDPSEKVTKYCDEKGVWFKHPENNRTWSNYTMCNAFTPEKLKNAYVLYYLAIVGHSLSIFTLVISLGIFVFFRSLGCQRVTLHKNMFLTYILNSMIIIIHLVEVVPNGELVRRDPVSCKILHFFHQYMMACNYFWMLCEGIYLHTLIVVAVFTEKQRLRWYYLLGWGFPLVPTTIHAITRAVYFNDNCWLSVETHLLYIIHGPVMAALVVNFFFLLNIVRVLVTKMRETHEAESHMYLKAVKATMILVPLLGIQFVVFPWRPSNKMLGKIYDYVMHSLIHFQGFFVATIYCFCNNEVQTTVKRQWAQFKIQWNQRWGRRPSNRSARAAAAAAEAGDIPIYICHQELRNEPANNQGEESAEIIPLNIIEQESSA
How it was run: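 COS7 stable hCTR2 clone (RAMP-free); peptide dose-response 15 min 37° C in Tyrode pH 7.4 + 100 µM IBMX + 0.1% casein; lysis 10 min RT; AlphaScreen cAMP; 4PL fit.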

[2] = molecular target: T2, human amylin receptor 3 (hAMYR3) consisting of hCTR2 co-expressed with human Receptor Activity Modifying Protein 3 (hRAMP3) (Homo sapiens, UniProt O60896+P30988); experiment: hAMYR3 assay: induction of cAMP (AlphaScreen cAMP Assay kit) in COS7 cells expressing hAMYR3; format: cell-based
T2 construct: expressed in transfected cells
T2 sequence (P30988 25-474): T1 sequence (P30988 25-474)
T2 sequence (O60896 24-148 partner): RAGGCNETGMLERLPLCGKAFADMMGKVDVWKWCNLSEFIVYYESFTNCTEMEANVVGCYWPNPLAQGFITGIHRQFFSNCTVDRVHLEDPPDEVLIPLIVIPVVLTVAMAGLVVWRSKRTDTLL
How it was run: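 Stable COS7 clone co-expressing hCTR2 and hRAMP3, stimulated 15 min at 37° C with increasing peptide in Tyrode buffer pH 7.4 with 100 µM IBMX and 0.1% casein. cAMP measured by AlphaScreen after lysis; EC50 and % efficacy versus pramlintide from 4PL fit.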

[3] = Solubility assessment (turbidity absorbance at 325 nm); format: physicochemical; conditions: stock 2 mg/ml diluted 1:1, ambient temperature (typically 25°C), n=1; for Solubility, Acetate buffer pH 4: 100 mM acetate buffer pH 4.0; for Solubility, Acetate buffer pH 5: 100 mM acetate buffer pH 5.0; for Solubility, Histidine buffer pH 6: 100 mM histidine buffer pH 6.0; for Solubility, Histidine buffer pH 7: 100 mM histidine buffer pH 7.0; for Solubility, Phosphate buffer pH 6: 100 mM phosphate buffer pH 6.0; for Solubility, Phosphate buffer pH 7: 100 mM phosphate buffer pH 7.0; for Solubility, Phosphate buffer pH 7.5: 100 mM phosphate buffer pH7.5
How it was run: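 Peptide stock (2 mg/ml) in water acidified to pH 2.5 with HCl was diluted 1:1 into 100 mM acetate (pH 4.0, 5.0), histidine (pH 6.0, 7.0) or phosphate (pH 6.0, 7.0, 7.5) buffer. A280 and A325 were read at about 25°C, n=1. A325 ≤ 0.02 meant solubility ≥ 1 mg/ml.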

| EC50 ([2]; cAMP induction in COS7 cells expressing hAMYR3, average of a minimum of 3 determinations, read-out: hAMY R3 EC50) | SMILES | EC50 [1] | Solubility, Acetate buffer pH 4 [3] | Solubility, Acetate buffer pH 5 [3] | Solubility, Histidine buffer pH 6 [3] | Solubility, Histidine buffer pH 7 [3] | Solubility, Phosphate buffer pH 6 [3] | Solubility, Phosphate buffer pH 7 [3] | Solubility, Phosphate buffer pH 7.5 [3] | EC50 [2] |
| --- | --- | --- | --- | --- | --- | --- | --- | --- | --- | --- |
| 0.58 nM | CC[C@H](C)[C@@H](C(=O)N[C@@H](CC(C)C)C(=O)N[C@@H](CO)C(=O)N[C@@H](CO)C(=O)N[C@H](C(=O)N[C@@H](CCC(=O)O)C(=O)N[C@H](C(=O)NCC(=O)N[C@@H](CO)C(=O)N[C@@H](CCC(=O)O)C(=O)N[C@H](C(=O)N1CCC[C@H]1C(N)=O)[C@@H](C)O)C(C)C)[C@@H](C)O)N(C)C(=O)[C@H](C)NC(=O)CN(C)C(=O)[C@H](Cc1ccccc1)NC(=O)[C@H](CO)NC(=O)[C@H](CO)NC(=O)[C@H](CO)NC(=O)[C@H](CO)NC(=O)[C@H](CCCNC(=N)N)NC(=O)[C@H](Cc1c[nH]cn1)NC(=O)[C@H](CC(C)C)NC(=O)[C@H](Cc1ccccc1)NC(=O)[C@H](CCC(=O)O)NC(=O)[C@H](C)NC(=O)[C@H](CC(C)C)NC(=O)[C@H](CCCNC(=N)N)NC(=O)[C@H](CCC(N)=O)NC(=O)[C@@H](NC(=O)[C@H](C)NC(=O)[C@@H]1CSSC[C@H](NC(=O)[C@H](CCCNC(=N)N)NC(=O)CC[C@H](NC(=O)CCCCCCCCCCCCCCCCCCC(=O)O)C(=O)O)C(=O)N[C@@H](CC(=O)O)C(=O)N[C@@H]([C@@H](C)O)C(=O)N[C@@H](C)C(=O)N[C@@H]([C@@H](C)O)C(=O)N1)[C@@H](C)O [Compound 127, [19CD]-isoGlu-RC()DTATC()ATQRLAEFLHRSSSSF-Gly(Me)-A-Ile(Me)-LSSTEVGSETP-NH2] ({C20 diacid-γGlu}-RCDTATCATQRLAEFLHRSSSSF[Sar]A[NMeI]LSSTEVGSETP-NH2; disulfide 2-7) | 0.19 nM | SS (SS indicates solubility ≥ 1mg/ml) | SS (SS indicates solubility ≥ 1mg/ml) | SS (SS indicates solubility ≥ 1mg/ml) | SS (SS indicates solubility ≥ 1mg/ml) | SS (SS indicates solubility ≥ 1mg/ml) | SS (SS indicates solubility ≥ 1mg/ml) | SS (SS indicates solubility ≥ 1mg/ml) | – |
| – | CC[C@H](C)[C@@H](C(=O)N[C@@H](CC(C)C)C(=O)N[C@@H](CO)C(=O)N[C@@H](CO)C(=O)N[C@H](C(=O)N[C@@H](CCC(=O)O)C(=O)N[C@H](C(=O)NCC(=O)N[C@@H](CO)C(=O)N[C@@H](CCC(=O)O)C(=O)N[C@H](C(=O)N1CCC[C@H]1C(N)=O)[C@@H](C)O)C(C)C)[C@@H](C)O)N(C)C(=O)[C@H](C)NC(=O)CN(C)C(=O)[C@H](Cc1ccccc1)NC(=O)[C@H](CO)NC(=O)[C@H](CO)NC(=O)[C@H](CO)NC(=O)[C@H](CO)NC(=O)[C@H](CCCNC(=N)N)NC(=O)[C@H](Cc1c[nH]cn1)NC(=O)[C@H](CC(C)C)NC(=O)[C@H](Cc1ccccc1)NC(=O)[C@H](CCC(=O)O)NC(=O)[C@H](C)NC(=O)[C@H](CC(C)C)NC(=O)[C@H](CCCNC(=N)N)NC(=O)[C@H](CCC(N)=O)NC(=O)[C@@H](NC(=O)[C@H](C)NC(=O)[C@@H]1CSSC[C@H](NC(=O)[C@H](CCCNC(=N)N)NC(=O)CC[C@H](NC(=O)CCCCCCCCCCCCCCCCCCC(=O)O)C(=O)O)C(=O)N2CCC[C@H]2C(=O)N[C@@H]([C@@H](C)O)C(=O)N[C@@H](C)C(=O)N[C@@H]([C@@H](C)O)C(=O)N1)[C@@H](C)O [Compound 129, [19CD]-isoGlu-RC()PTATC()ATQRLAEFLHRSSSSF-Gly(Me)-A-Ile(Me)-LSSTEVGSETP-NH2] ({C20 diacid-γGlu}-RCPTATCATQRLAEFLHRSSSSF[Sar]A[NMeI]LSSTEVGSETP-NH2; disulfide 2-7) | 0.15 nM | SS (SS indicates solubility ≥ 1mg/ml) | SS (SS indicates solubility ≥ 1mg/ml) | SS (SS indicates solubility ≥ 1mg/ml) | SS (SS indicates solubility ≥ 1mg/ml) | SS (SS indicates solubility ≥ 1mg/ml) | SS (SS indicates solubility ≥ 1mg/ml) | SS (SS indicates solubility ≥ 1mg/ml) | 0.15 nM |
